Results published in US10745365B2, “Luminogenic and fluorogenic compounds and methods to detect molecules or conditions” (Promega Corporation, priority 2005, dated 2020).

Tests used:
Type in all cases: biochemical
[1] = biological target: T1, QuantiLum Luciferase (firefly luciferase) (Photinus pyralis, UniProt P08659); assay: Light emission of QuantiLum firefly luciferase with luciferin derivatives; conditions: for Light reading (Turner 20/20) at time 0: 0 min; for Light reading (Turner 20/20) at time 7: 7 min; for Light reading (Turner 20/20) at time 15: 15 min; for Light reading (Turner 20/20) at time 22: 22 min; for Light reading (Turner 20/20) at time 30: 30 min; for Light reading (Turner 20/20) at time 45: 45 min; for Light reading (Turner 20/20) at time 60: 60 min; for Light emission, Alone: Alone (no addition)
T1 construct: purchased Promega Corporation El 70
T1 sequence (P08659 whole entry): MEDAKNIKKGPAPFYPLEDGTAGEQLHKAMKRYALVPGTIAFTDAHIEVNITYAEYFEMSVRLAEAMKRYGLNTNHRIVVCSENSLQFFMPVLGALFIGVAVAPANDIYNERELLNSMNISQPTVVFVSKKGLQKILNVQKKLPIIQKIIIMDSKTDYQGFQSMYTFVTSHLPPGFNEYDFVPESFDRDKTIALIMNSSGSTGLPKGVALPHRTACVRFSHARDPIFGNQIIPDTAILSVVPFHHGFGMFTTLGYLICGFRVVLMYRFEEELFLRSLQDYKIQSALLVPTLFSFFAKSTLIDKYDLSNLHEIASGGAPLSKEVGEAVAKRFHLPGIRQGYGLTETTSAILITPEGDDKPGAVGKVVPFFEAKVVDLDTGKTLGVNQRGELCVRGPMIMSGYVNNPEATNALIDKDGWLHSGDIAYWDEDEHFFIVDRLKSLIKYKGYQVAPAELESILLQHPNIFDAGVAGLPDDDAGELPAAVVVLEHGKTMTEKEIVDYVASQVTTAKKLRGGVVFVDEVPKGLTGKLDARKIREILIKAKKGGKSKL
Procedure: Gel and HPLC stop solution. Solid EDTA (free acid) was placed in a beaker with water and the pH of the solution adjusted to pH 7.0. The solution was then adjusted in volume to produce a solution 400 mM in EDTA.
Enzyme stop solution. A solution was prepared containing 20 mM Bis Tris, pH 6.5, 2 mM EDTA and 1 mg/ml bovine serum albumin.
Reaction buffer (2×). A solution was made containing 100 mM HEPES buffer, pH 8.0; 10 mM MgCl2.
DTT stock. Solid DTT (dithiothreitol) was dissolved in water and then adjusted to pH 8.0 with solid sodium hydroxide. The solution was then adjusted in volume to produce a solution 1 M in DTT.
(§1) After producing the solutions in Table 37, the volume of all reactions was adjusted to 990 μl with water. […] While the light reading was being taken, a 10 μl sample of the reaction was diluted to 500 μl with enzyme stop solution (cooled on ice to 4° C.) mixed and placed on ice and a second sample of 90 μl of reaction was added to 10 μl of Gel/HPLC stop and the tube placed at −20° C. A timer was started with the start of the first reaction and the start times of the remaining reactions was noted. At 15, 30, 45 and 60 minutes, each reaction was sampled as above and the light produced in the luminometer tubes was measured. At 7 and 22 minutes, the light produced in the luminometer tubes was read, but the reactions were not sampled.
as §1, with “40,” for “37,”, “−200” for “−20°”
The DTT, Coenzyme A, and QuantiLum stock solutions are the same as those described herein.
This solution was diluted 1:1 with water to produce an enzyme solution labeled “No addition.” This solution was diluted 1:1 with 400 mM DTT, pH 8.0 to produce a solution labeled+DTT. This solution was diluted 1: 1 with 4 mM Coenzyme A to produce a solution labeled+Co A. Finally, this solution was diluted 1: 1 with a solution having both 4 mM Coenzyme A and 400 mM DTT to produce a solution labeled+Co A & DTT.
50 μl samples of these solutions were placed in the wells of luminometer microtiter plates, row A to row G, respectively. Row H of the plates was given 50 μl of water.
Reactions in these plates were initiated by addition of 50 μl of solution containing QuantiLum luciferase using a 12 channel micropipette. The solutions added to the rows were: columns 1, 5, and 9—no addition solution; columns 2, 6, and 10—+Co A solution; columns 3, 7, and 11—+DTT solution, and; columns 4, 8, and 12—+Co A and DTT solution. After addition of the enzyme solution to the first row on every plate, a timer was started. After addition of the enzyme solution to the last row on each plate, the plate was sealed and read on a Veritas luminometer.

[2] = biological target: T1, QuantiLum Luciferase (firefly luciferase); assay: Residual active QuantiLum luciferase after reaction with derivative (Steady Glo); conditions: no additive (reactions 3A, 4A)
Procedure: as §1
After all samples were taken, 50 μl of the sample diluted into enzyme stop solution was mixed with 50 μl of Steady Glo Luciferase Reagent (Promega) and the light produced measured after incubating at room temperature for 10 minutes. This measured the active luciferase in the initial reaction.
as §1, with “40,” for “37,”, “−200” for “−20°”

[3] = test system: thermostable luciferase (Luc 146-1H2); assay: Light emission of thermostable luciferase with luciferin derivatives; conditions: 100 μM each
Procedure: This stock was used to produce enzyme stock solution having of 200 μg/ml enzyme solution in 1 mg/ml BSA, 200 mM HEPES buffer, pH 8.0, 20 mM MgCl2.
Solutions were made using a 1 M DTT solution, pH adjusted to 8.0, a 20 mM Coenzyme A solution in water (both described in examples above), a 100 mM ATP solution and water to create the following solutions: Sol′ A, 100 μM ATP; Sol′B, 100 μM ATP, 4 mM Coenzyme A; Sol′n C, 100 μM ATP, 400 mM DTT, and; Sol′n D, 100 μM ATP, 4 mM Coenzyme A and 400 mM DTT.
After assembly, the reactions were initiated by addition of 25 μl of the thermostable luciferase stock solution above and mixing the tube contents. A 50 μl sample was immediately removed and placed in a luminometer tube and the light read and the tube then replaced in a tube rack at room temperature. While the light reading was being taken, a 5 μl sample of the remaining reaction (which was kept at room temperature) was diluted into 495 μl of 50 mM BisTris, pH 6.5, 1 mg/ml BSA, 1 mM EDTA prechilled to 4° C. and the tube mixed and placed on ice. The light produced by the samples in the luminometer tubes were re-read at 20, 40, 60, 90 and 120 minutes post enzyme addition. Additional 5 μl samples were taken and diluted as above at 60 and 120 minutes post enzyme addition. Once all these readings and samples were taken, 50 μl of the diluted samples was mixed with 50 μl of Steady Glo in luminometer tubes, the tubes incubated 10 minutes […] then the light produced was read on a Turner TD 20/20 luminometer.

Question: Which results are given for `O=C(O)[C@H]1CSC(c2nc3ccc(OCCO)cc3s2)=N1` [2 hydroxyethoxyluciferin derivative, 6′-(2-hydroxyethoxyl) luciferin]?
Answer: Light reading (Turner 20/20) at time 0 ([1]; +Co A): 810,864; Light reading (Turner 20/20) at time 7 ([1]; +Co A): 125,718; Light reading (Turner 20/20) at time 15 ([1]; +Co A): 61,287; Light reading (Turner 20/20) at time 22 ([1]; +Co A): 326,424; Light reading (Turner 20/20) at time 30 ([1]; +Co A): 169,972; Light reading (Turner 20/20) at time 45 ([1]; +Co A): 78,909; Light reading (Turner 20/20) at time 60 ([1]; +Co A): 45,156; Light reading (Turner 20/20) at time 0 ([1]; +DTT): 2,515,513; Light reading (Turner 20/20) at time 7 ([1]; +DTT): 294,885; Light reading (Turner 20/20) at time 15 ([1]; +DTT): 146,849; Light reading (Turner 20/20) at time 22 ([1]; +DTT): 335,031; Light reading (Turner 20/20) at time 30 ([1]; +DTT): 237,487; Light reading (Turner 20/20) at time 60 ([1]; +DTT): 67,064; Light reading (Turner 20/20) at time 0 ([1]; No Additive): 749,597; Light reading (Turner 20/20) at time 7 ([1]; No Additive): 114,541; Light reading (Turner 20/20) at time 15 ([1]; No Additive): 63,691; Light reading (Turner 20/20) at time 22 ([1]; No Additive): 259,945; Light reading (Turner 20/20) at time 30 ([1]; No Additive): 233,600; Light reading (Turner 20/20) at time 45 ([1]; No Additive): 51,233; Light reading (Turner 20/20) at time 60 ([1]; No Additive): 44,782; Light reading (Turner 20/20) at time 0 ([1]; no ATP): 87; Light reading (Turner 20/20) at time 7 ([1]; no ATP): 106; Light reading (Turner 20/20) at time 15 ([1]; no ATP): 387,497; Light reading (Turner 20/20) at time 22 ([1]; no ATP): 218,745; Light reading (Turner 20/20) at time 45 ([1]; no ATP): 11,499; Light reading (Turner 20/20) at time 60 ([1]; no ATP): 20,100; loss of luciferase activity on transformation of substrate [2]: significant and substantial reduction in enzyme activity

Question: How did the “luciferase substrate” value [1] turn out when `O=C(O)C1CSC(c2nc3ccc(NCCCO)cc3s2)=N1` (stereo not shown) [N-(3-hydroxypropyl)-aminoluciferin] was run?
Answer: substrate for luciferase that provides sufficient light output for a luminescence reaction

Question: For `CN(C)c1ccc2nc(C3=NC(C(=O)O)CS3)sc2c1` (stereo not shown) [dimethyl amino luciferin], which “brightness relative to amino luciferin” value [3] is on record?
Answer: only about half as bright

Question: What does the source list for `O=C(O)[C@H]1CSC(c2nc3ccc(OCc4ccccc4)cc3s2)=N1` [luciferin-6-benzylether, reference compound]?
Answer: Light emission, Co A ([1]; Derivative Conc. 3.13 μM, +Co A): 55778; Light emission, Co A + DTT ([1]; Derivative Conc. 3.13 μM): 80626; Light emission, DTT ([1]; Derivative Conc. 3.13 μM, +DTT): 86445; Light emission, Alone ([1]; Derivative Conc. 3.13 μM): 32994; Light emission, Co A ([1]; Derivative Conc. 6.25 μM, +Co A): 58288; Light emission, Co A + DTT ([1]; Derivative Conc. 6.25 μM): 105912; Light emission, DTT ([1]; Derivative Conc. 6.25 μM, +DTT): 100044; Light emission, Alone ([1]; Derivative Conc. 6.25 μM): 38838; Light emission, Co A ([1]; Derivative Conc. 25 μM, +Co A): 53097; Light emission, Co A + DTT ([1]; Derivative Conc. 25 μM): 90306; Light emission, DTT ([1]; Derivative Conc. 25 μM, +DTT): 84034; Light emission, Alone ([1]; Derivative Conc. 25 μM): 40093; Light emission, Co A ([1]; Derivative Conc. 50 μM, +Co A): 38349; Light emission, Co A + DTT ([1]; Derivative Conc. 50 μM): 98716; Light emission, DTT ([1]; Derivative Conc. 50 μM, +DTT): 80001; Light emission, Alone ([1]; Derivative Conc. 50 μM): 30609; Light emission, Co A ([1]; Derivative Conc. 100 μM, +Co A): 33199; Light emission, Co A + DTT ([1]; Derivative Conc. 100 μM): 64460; Light emission, DTT ([1]; Derivative Conc. 100 μM, +DTT): 54592; Light emission, Alone ([1]; Derivative Conc. 100 μM): 31581
